# According to patent US20230000842A1, “METHODS OF TREATING CARTILAGE DISORDERS THROUGH INHIBITION OF CLK AND DYRK” (SAMUMED, LLC, priority 2019, published 2023):
# Where two headings read alike, the source gives them in different places.
# How the values were obtained:
# [1] = biological target: CLK2 kinase (Homo sapiens, UniProt P49760); test: CLK2 kinase activity assay (Z-lyte FRET); assay type: biochemical; details: Z-lyte Ser/Thr 6 peptide, 60 μM ATP, 1 h at room temperature;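 also: FRET read-out as coumarin to fluorescein emission ratio, unphosphorylated peptide as 0% and phosphorylated peptide as 100% controls, duplicate reactions, non-linear regression fit of dose-response curves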
# [2] = biological target: CLK3 kinase (Homo sapiens, UniProt P49761); test: CLK3 kinase activity assay (Z-lyte FRET); assay type: biochemical; details: Z-lyte Ser/Thr 18 peptide, 156 μM ATP, 1 h at room temperature;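 also: kinase activity read as coumarin/fluorescein emission ratio by FRET, unphosphorylated peptide as 0% and phosphorylated peptide as 100% control, values from non-linear regression of dose-response curves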
# [3] = test system: primary human mesenchymal stem cells (hMSCs); test: Chondrogenesis screening using primary human mesenchymal stem cells; assay type: cell-based; details: hMSC chondrogenesis; for EC50: concentration required to induce 50% levels of chondrogenesis with TGF-β3 as positive control, read-out: Conc (nM) of 50% TGF-β3 activity; for Emax: read-out: Max. Activity as % TGF-β3 activity
# In short: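 Primary hMSCs at passage 3–6 were treated across compound concentrations, with TGF-β3 as positive control. Chondrogenic nodule area per well was normalized to 3 DMSO wells on the same plate (fold over DMSO, 2–3 replicates). EC50, maximum activity and the dose reaching it were derived.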
# [4] = test system: Wnt pathway activity (SW480 colon carcinoma cells stably expressing the Sp5-Luc reporter); test: Wnt pathway activity screening assay (Sp5-Luc reporter gene assay); details: SW480 cells stably expressing Sp5-Luc reporter, 10-point dose-response from 10 μM, 36 to 48 hours
# [5] = Homo sapiens, Mesenchymal stem cells
# [6] = Homo sapiens, Mesenchymal stem cells, maximum activity relative to TGF-β3 (10 ng/mL) positive control
# Sequence of CLK2 kinase (P49760 whole entry): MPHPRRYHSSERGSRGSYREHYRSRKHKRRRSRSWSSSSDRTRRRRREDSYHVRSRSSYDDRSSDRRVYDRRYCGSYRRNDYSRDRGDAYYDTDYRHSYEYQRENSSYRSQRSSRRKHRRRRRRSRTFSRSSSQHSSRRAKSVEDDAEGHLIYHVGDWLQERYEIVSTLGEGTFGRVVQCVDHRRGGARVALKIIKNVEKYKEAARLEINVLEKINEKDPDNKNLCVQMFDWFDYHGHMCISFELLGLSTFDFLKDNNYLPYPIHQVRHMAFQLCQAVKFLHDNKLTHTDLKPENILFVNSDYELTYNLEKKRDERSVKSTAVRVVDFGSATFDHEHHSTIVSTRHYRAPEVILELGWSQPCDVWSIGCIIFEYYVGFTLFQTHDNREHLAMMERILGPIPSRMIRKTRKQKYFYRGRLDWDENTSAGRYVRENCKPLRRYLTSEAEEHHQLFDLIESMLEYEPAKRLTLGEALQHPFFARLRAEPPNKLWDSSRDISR
# Sequence of CLK3 kinase (P49761 whole entry): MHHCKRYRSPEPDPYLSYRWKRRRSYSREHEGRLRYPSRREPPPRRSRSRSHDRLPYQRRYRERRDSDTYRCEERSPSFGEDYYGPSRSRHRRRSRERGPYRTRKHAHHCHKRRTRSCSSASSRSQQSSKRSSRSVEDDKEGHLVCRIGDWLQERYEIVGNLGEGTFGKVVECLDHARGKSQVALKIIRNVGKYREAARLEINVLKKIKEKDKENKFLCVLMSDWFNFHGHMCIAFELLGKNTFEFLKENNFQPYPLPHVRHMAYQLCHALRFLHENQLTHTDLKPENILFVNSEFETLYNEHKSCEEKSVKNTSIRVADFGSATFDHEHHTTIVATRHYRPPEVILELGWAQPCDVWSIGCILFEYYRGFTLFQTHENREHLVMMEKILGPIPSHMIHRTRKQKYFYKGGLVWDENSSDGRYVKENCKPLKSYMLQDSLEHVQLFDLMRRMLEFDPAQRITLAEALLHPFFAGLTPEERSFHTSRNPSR
EC50 [1],EC50 [2],"EC50 [3, 5]","EC50 ([4]; Homo sapiens, SW480, Table 4)",EC50 [3],EC50 ([4]; Table 4),Compound,"Emax [3, 6]",Max. Activity as % TGF-β3 activity ([3]; maximum activity relative to TGF-β3 (10 ng/mL) positive control)
0.005 µM,0.074 µM,20.6 nM,> 10 µM,–,–,Oc1cncc(-c2ccc3[nH]nc(-c4nc5c(-c6cccc(F)c6)cncc5[nH]4)c3n2)c1 [compound 145],53.6%,–
0.003 µM,0.139 µM,–,3.62 µM,–,–,Fc1ccc(-c2nccc3[nH]c(-c4n[nH]c5ccc(-c6cncc(CN7CCCC7)c6)cc45)cc23)cc1 [compound 315],98.5%,–
0.002 µM,0.344 µM,100 nM,> 10 µM,–,–,CN1CCN(c2nccc3[nH]c(-c4n[nH]c5ccc(-c6cncc(N)c6)nc45)nc23)CC1 [compound 214],135%,–
0.005 µM,0.089 µM,10 nM,0.116 µM,–,–,FC1(F)CCN(Cc2cncc(-c3cc4c(-c5nc6c(N7CCCCC7)cncc6[nH]5)n[nH]c4cn3)c2)C1 [compound 212],100%,–
0.002 µM,0.23 µM,30 nM,0.297 µM,–,–,CC(C)Nc1cncc(-c2ccc3[nH]nc(-c4nc5c(-c6ccoc6)nccc5[nH]4)c3n2)c1 [compound 238],76.2%,–
0.005 µM,0.538 µM,300 nM,3.06 µM,–,–,CN(C)c1cncc(-c2cc3c(-c4cc5cnccc5[nH]4)n[nH]c3cn2)c1 [compound 441],101%,–
0.01 µM,0.785 µM,10 nM,0.0305 µM,–,–,Fc1ccccc1-c1nccc2[nH]c(-c3n[nH]c4cnc(-c5cn[nH]c5)cc34)cc12 [compound 340],89.2%,–
0.008 µM,9.84 µM,10 nM,> 10 µM,–,–,CC(C)Nc1cncc(-c2cc3c(-c4cc5c(-c6cccnc6)ccnc5[nH]4)n[nH]c3cn2)c1 [compound 363],77%,–
0.002 µM,0.093 µM,10 nM,> 10 µM,–,–,CCCCC(=O)Nc1cncc(-c2ccc3[nH]nc(-c4nc5c(-c6cc(F)cc(NCCN(C)C)c6)cncc5[nH]4)c3n2)c1 [compound 279],64.7%,–
0.012 µM,0.885 µM,–,9.38 µM,–,–,CN1CCN(c2nccc3[nH]c(-c4n[nH]c5ccc(-c6cncc(CN7CCCC7)c6)cc45)cc23)CC1 [compound 492],31%,–
0.002 µM,0.012 µM,200 nM,0.0418 µM,–,–,c1cc2cc(c1)-c1cncc3[nH]c(nc13)-c1n[nH]c3ccc(cc13)-c1cncc(c1)CNC2 [compound 618],558%,–
0.021 µM,0.09 µM,–,–,10 nM,0.0191 µM,Fc1cccc(-c2cncc3[nH]c(-c4n[nH]c5ccc(-c6cncc(CN7CCC(F)(F)C7)c6)cc45)nc23)c1 [compound 142],–,85.77%
0.002 µM,0.132 µM,–,> 10 µM,–,–,CC(C)C(=O)Nc1cncc(-c2ccc3[nH]nc(-c4nc5c(-c6cccnc6)ccnc5[nH]4)c3n2)c1 [compound 187],26.1%,–
0.011 µM,0.344 µM,–,0.324 µM,–,–,CCCCC(=O)Nc1cncc(-c2ccc3[nH]nc(-c4cc5cccnc5[nH]4)c3c2)c1 [compound 420],34.1%,–
0.005 µM,0.036 µM,300 nM,0.021 µM,–,–,CN(C)CCNc1cc(F)cc(-c2cncc3[nH]c(-c4n[nH]c5ncc(-c6cccnc6)cc45)nc23)c1 [compound 278],129%,–
0.011 µM,9.84 µM,–,0.0283 µM,–,–,c1cncc(-c2cc3c(-c4nc5c(-c6cccnc6)nccc5[nH]4)n[nH]c3cn2)c1 [compound 182],44.5%,–
0.012 µM,0.389 µM,–,> 10 µM,–,–,CC(C)C(=O)Nc1cncc(-c2cc3c(-c4cc5c(-c6ccncc6)nccc5[nH]4)n[nH]c3cn2)c1 [compound 385],32.1%,–

# Continued, molecule first:
Compound,EC50 [1],EC50 [2],"EC50 [3, 5]","EC50 ([4]; Homo sapiens, SW480, Table 4)",EC50 [3],EC50 ([4]; Table 4),"Emax [3, 6]",Max. Activity as % TGF-β3 activity ([3]; maximum activity relative to TGF-β3 (10 ng/mL) positive control)
c1cncc(-c2ccc3[nH]nc(-c4nc5c(-c6cccnc6)cncc5[nH]4)c3c2)c1 [compound 178],0.005 µM,0.207 µM,30 nM,0.035 µM,–,–,159%,–
FC1(F)CCN(Cc2cncc(-c3ccc4[nH]nc(-c5nc6c(-c7ccsc7)cncc6[nH]5)c4c3)c2)C1 [compound 253],0.007 µM,0.026 µM,–,0.0018 µM,–,–,81.3%,–
CN(C)Cc1cncc(-c2cnc3[nH]nc(-c4nc5c(-c6ccsc6)cncc5[nH]4)c3c2)c1 [compound 252],0.002 µM,0.118 µM,–,0.057 µM,–,–,91.3%,–
CC(C)(C)C(=O)Nc1cncc(-c2ccc3[nH]nc(-c4nc5c(-c6ccc(Cl)s6)cncc5[nH]4)c3n2)c1 [compound 265],0.008 µM,0.091 µM,10 nM,0.551 µM,–,–,84.7%,–
Cc1cncc(NC(=O)c2n[nH]c3ccc(-c4cncc(CN5CCCCC5)c4)cc23)c1 [compound 79],0.001 µM,0.352 µM,300 nM,0.059 µM,–,–,68.3%,–
CC(C)Nc1cncc(-c2cnc3[nH]nc(-c4nc5c(-c6ccoc6)nccc5[nH]4)c3c2)c1 [compound 237],0.007 µM,0.134 µM,30 nM,0.0526 µM,–,–,72%,–
CN(C)Cc1cncc(-c2ccc3[nH]nc(-c4cc5c(-c6ccncc6)cncc5[nH]4)c3c2)c1 [compound 398],0.003 µM,0.056 µM,–,1.05 µM,–,–,17.8%,–
CC(C)CC(=O)Nc1cncc(-c2ccc3[nH]nc(-c4cc5c(N6CCN(C)CC6)ccnc5[nH]4)c3n2)c1 [compound 477],0.003 µM,0.204 µM,–,3.45 µM,–,–,49.5%,–
O=C(Nc1cncc(-c2ccc3[nH]nc(-c4nc5c(-c6ccccc6F)ccnc5[nH]4)c3n2)c1)C(F)(F)F [compound 176],0.006 µM,0.149 µM,10 nM,> 10 µM,–,–,74%,–
CC(C)CC(=O)Nc1cncc(-c2ccc3[nH]nc(-c4nc5c(-c6ccc(F)cc6)cncc5[nH]4)c3c2)c1 [compound 163],0.032 µM,0.075 µM,100 nM,0.057 µM,–,–,125%,–
CC(C)Nc1cncc(-c2ccc3[nH]nc(-c4nc5c(-c6ccoc6)cncc5[nH]4)c3n2)c1 [compound 239],0.002 µM,0.087 µM,30 nM,0.597 µM,–,–,75.3%,–
CN1CCN(c2nccc3[nH]c(-c4n[nH]c5cnc(-c6cncc(NC(=O)C(C)(C)C)c6)cc45)cc23)CC1 [compound 478],0.009 µM,0.137 µM,10 nM,1.88 µM,–,–,88.2%,–
CN(C)Cc1cncc(-c2ccc3[nH]nc(-c4cc5c(-c6cccc(F)c6)cncc5[nH]4)c3c2)c1 [compound 309],0.003 µM,0.037 µM,–,1.28 µM,–,–,193%,–
